Laboratory results from ChEMBL document CHEMBL5137039, “Therapeutic potentials and structure-activity relationship of 1,3-benzodioxole N-carbamothioyl carboxamide derivatives as selective and potent antagonists of P2X4 and P2X7 receptors” (Eur J Med Chem, 2022).

Assays:
[1] = target: T1, P2X purinoceptor 2 (Homo sapiens) (UniProt Q9UBL9); assay: Antagonist activity against human P2X2R stably transfected in human 1321N1 cells at 50 uM incubated for 30 mins by Fura-2 AM staining based calcium influx assay relative to control; format: cell-based; parameters: scale not given: the % may be the effect or the level left
T1 sequence (whole entry): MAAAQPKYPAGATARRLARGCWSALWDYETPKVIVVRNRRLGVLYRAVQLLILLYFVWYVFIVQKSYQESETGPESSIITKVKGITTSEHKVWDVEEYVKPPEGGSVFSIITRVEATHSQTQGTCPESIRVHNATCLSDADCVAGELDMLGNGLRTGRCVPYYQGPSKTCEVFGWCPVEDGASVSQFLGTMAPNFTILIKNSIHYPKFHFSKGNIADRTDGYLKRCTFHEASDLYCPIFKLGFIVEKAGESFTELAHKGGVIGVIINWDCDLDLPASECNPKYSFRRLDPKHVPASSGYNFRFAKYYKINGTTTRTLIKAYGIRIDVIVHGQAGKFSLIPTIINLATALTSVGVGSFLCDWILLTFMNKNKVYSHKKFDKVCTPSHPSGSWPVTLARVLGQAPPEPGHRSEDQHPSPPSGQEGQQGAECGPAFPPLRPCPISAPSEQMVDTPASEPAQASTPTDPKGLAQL

[2] = Cytotoxicity against human 1321N1 cells assessed as reduction in cell viability at 50 uM after 24 hrs by MTT assay relative to control; format: toxicity, cell-based; details: 1321n1, 24 h
[3] = target: T2, P2X purinoceptor 4 (Homo sapiens, UniProt Q99571); assay: Antagonist activity against human P2X4R stably transfected in human 1321N1 cells incubated for 30 mins by Fura-2 AM staining based calcium influx assay; format: cell-based
T2 sequence (Q99571 whole entry): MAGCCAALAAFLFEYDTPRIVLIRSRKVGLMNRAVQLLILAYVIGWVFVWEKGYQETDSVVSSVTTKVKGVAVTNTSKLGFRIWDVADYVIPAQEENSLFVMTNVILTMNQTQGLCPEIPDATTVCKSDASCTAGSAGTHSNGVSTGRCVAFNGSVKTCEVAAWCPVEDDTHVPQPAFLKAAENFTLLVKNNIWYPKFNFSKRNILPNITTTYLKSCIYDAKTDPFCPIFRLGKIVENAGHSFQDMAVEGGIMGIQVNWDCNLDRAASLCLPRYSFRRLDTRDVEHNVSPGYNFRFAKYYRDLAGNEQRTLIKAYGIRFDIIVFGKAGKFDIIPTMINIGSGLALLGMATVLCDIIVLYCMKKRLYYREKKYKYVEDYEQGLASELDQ

[4] = target: T3, P2X purinoceptor 5 (Homo sapiens, UniProt Q93086); assay: Antagonist activity against human P2X5R stably transfected in human 1321N1 cells at 50 uM incubated for 30 mins by Fura-2 AM staining based calcium influx assay relative to control; format: cell-based; parameters: scale not given: the % may be the effect or the level left
T3 sequence (Q93086 whole entry): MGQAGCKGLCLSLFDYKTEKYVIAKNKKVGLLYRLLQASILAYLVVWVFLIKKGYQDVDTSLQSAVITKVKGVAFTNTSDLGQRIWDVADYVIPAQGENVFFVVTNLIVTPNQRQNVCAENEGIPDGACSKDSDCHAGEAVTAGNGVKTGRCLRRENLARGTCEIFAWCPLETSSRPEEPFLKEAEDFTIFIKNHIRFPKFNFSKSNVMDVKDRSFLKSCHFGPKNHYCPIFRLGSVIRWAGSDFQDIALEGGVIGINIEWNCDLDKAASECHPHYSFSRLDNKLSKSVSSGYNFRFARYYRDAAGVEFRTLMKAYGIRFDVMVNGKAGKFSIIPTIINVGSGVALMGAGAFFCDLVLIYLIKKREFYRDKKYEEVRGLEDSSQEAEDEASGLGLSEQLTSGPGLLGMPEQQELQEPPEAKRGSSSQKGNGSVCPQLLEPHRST

[5] = target: T4, P2X purinoceptor 4 (Homo sapiens) (UniProt Q99571); assay: Antagonist activity against human P2X4R stably transfected in human 1321N1 cells at 50 uM incubated for 30 mins by Fura-2 AM staining based calcium influx assay relative to control; format: cell-based; parameters: scale not given: the % may be the effect or the level left
T4 sequence (whole entry): T2 sequence (Q99571 whole entry)

[6] = system: HeLa; assay: Cytotoxicity against human HeLa cells assessed as reduction in cell viability at 50 uM after 24 hrs by MTT assay relative to control; format: toxicity, cell-based
[7] = system: HEK293; assay: Cytotoxicity against HEK293 cells assessed as reduction in cell viability at 50 uM after 24 hrs by MTT assay relative to control; format: toxicity, cell-based; details: human, hek293, 24 h
[8] = target: T5, P2X purinoceptor 7 (Homo sapiens) (UniProt Q99572); assay: Antagonist activity against human P2X7R stably transfected in human 1321N1 cells at 50 uM incubated for 30 mins by Fura-2 AM staining based calcium influx assay relative to control; format: cell-based; parameters: scale not given: the % may be the effect or the level left
T5 sequence (whole entry): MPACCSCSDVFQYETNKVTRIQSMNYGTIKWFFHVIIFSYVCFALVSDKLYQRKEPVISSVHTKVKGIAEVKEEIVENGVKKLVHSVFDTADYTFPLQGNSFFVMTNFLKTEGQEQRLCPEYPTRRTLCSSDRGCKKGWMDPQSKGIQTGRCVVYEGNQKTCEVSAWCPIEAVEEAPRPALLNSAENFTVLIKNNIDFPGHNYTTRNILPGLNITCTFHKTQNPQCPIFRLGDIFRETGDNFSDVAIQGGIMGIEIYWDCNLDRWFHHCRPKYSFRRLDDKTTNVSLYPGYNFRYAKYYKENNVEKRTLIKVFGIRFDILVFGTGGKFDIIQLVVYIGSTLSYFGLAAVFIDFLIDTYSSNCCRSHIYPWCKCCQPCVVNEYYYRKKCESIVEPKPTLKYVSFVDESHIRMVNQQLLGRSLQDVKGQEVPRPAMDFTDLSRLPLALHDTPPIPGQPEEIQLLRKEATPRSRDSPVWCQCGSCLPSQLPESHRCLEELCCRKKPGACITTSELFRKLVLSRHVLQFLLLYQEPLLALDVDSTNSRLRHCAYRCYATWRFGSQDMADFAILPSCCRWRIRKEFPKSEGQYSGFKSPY

[9] = target: T6, P2X purinoceptor 7 (Homo sapiens, UniProt Q99572); assay: Antagonist activity against human P2X7R stably transfected in human 1321N1 cells incubated for 30 mins by Fura-2 AM staining based calcium influx assay; format: cell-based
T6 sequence (Q99572 whole entry): T5 sequence (whole entry)

[10] = target: T5, P2X purinoceptor 7 (Homo sapiens); assay: Antagonist activity against human P2X7R stably transfected in human 1321N1 cells assessed as BzATP Emax at 0.2 uM incubated for 30 mins by Fura-2 AM staining based calcium influx assay relative to control; format: cell-based
[11] = target: T6, P2X purinoceptor 7; assay: Antagonist activity against human P2X7R stably transfected in human 1321N1 cells assessed as reduction in BzATP-induced activity incubated for 5 to 10 mins by EtBr staining based fluorescence assay; format: cell-based
[12] = target: T5, P2X purinoceptor 7 (Homo sapiens); assay: Antagonist activity against human P2X7R stably transfected in human 1321N1 cells assessed as BzATP Emax at 0.1 uM incubated for 30 mins by Fura-2 AM staining based calcium influx assay relative to control; format: cell-based; details: filed as antagonist
[13] = target: T5, P2X purinoceptor 7 (Homo sapiens); assay: Antagonist activity against human P2X7R stably transfected in human 1321N1 cells assessed as BzATP Emax at 0.05 uM incubated for 30 mins by Fura-2 AM staining based calcium influx assay relative to control; format: cell-based; details: filed as antagonist
[14] = target: T4, P2X purinoceptor 4 (Homo sapiens); assay: Antagonist activity against human P2X4R stably transfected in human 1321N1 cells assessed as ATP Emax at 0.2 uM incubated for 30 mins by Fura-2 AM staining based calcium influx assay relative to control; format: cell-based; details: filed as antagonist
[15] = target: T4, P2X purinoceptor 4 (Homo sapiens); assay: Antagonist activity against human P2X4R stably transfected in human 1321N1 cells assessed as ATP Emax at 0.1 uM incubated for 30 mins by Fura-2 AM staining based calcium influx assay relative to control; format: cell-based; details: filed as antagonist
[16] = target: T4, P2X purinoceptor 4 (Homo sapiens); assay: Antagonist activity against human P2X4R stably transfected in human 1321N1 cells assessed as ATP Emax at 0.05 uM incubated for 30 mins by Fura-2 AM staining based calcium influx assay relative to control; format: cell-based; details: filed as antagonist
[17] = target: T3, P2X purinoceptor 5; assay: Antagonist activity against human P2X5R stably transfected in human 1321N1 cells incubated for 30 mins by Fura-2 AM staining based calcium influx assay; format: cell-based
[18] = target: T7, P2X purinoceptor 2 (Homo sapiens, UniProt Q9UBL9); assay: Antagonist activity against human P2X2R stably transfected in human 1321N1 cells incubated for 30 mins by Fura-2 AM staining based calcium influx assay; format: cell-based
T7 sequence (Q9UBL9 whole entry): T1 sequence (whole entry)

| SMILES | Activity [1] | IC50 [3] | Activity [4] | IC50 [9] | Activity [2] | Activity [6] | Activity [7] | other results |
| --- | --- | --- | --- | --- | --- | --- | --- | --- |
| O=C(NC(=S)Nc1ccc(Br)cc1)c1ccc2c(c1)OCO2 | 35% | 14300 nM | 38% | – | 3.72% | 7.64% | 2.64% | Activity [5]: 31%; Activity [8]: 22% |
| O=C(NC(=S)Nc1cc(Br)cc(C(F)(F)F)c1)c1ccc2c(c1)OCO2 | 22% | 18200 nM | 17% | 1250 nM | 3.34% | 5.59% | 4.48% | – |
| O=C(NC(=S)Nc1ccc([N+](=O)[O-])cc1)c1ccc2c(c1)OCO2 | – | 3760 nM | – | 1890 nM | – | – | – | IC50 [17]: 1650 nM |
| COc1ccccc1NC(=S)NC(=O)c1ccc2c(c1)OCO2 | 39% | 3670 nM | 26% | – | 5.41% | 1.7% | 4.6% | Activity [8]: 38% |
| CC(C)c1cc(Br)c(NC(=O)Nc2cccnc2)c(Br)c1 | – | – | – | – | 16.7% | 14.81% | 25.19% | Activity ([8]; filed as antagonist): 45% |
| COc1cccc(NC(=S)NC(=O)c2ccc3c(c2)OCO3)c1 | 22% | – | 25% | – | 4.15% | 4.18% | 1.95% | Activity [5]: 19%; Activity [8]: 33% |
| Cc1nc(/N=N/c2ccc(S(=O)(=O)O)cc2S(=O)(=O)O)c(COP(=O)(O)O)c(C=O)c1O | – | – | – | – | 12.41% | 20.43% | 46.58% | – |
| O=C(NC(=S)Nc1cc(Cl)c(O)c(Cl)c1)c1ccc2c(c1)OCO2 | – | 7640 nM | – | 1640 nM | – | – | – | – |
| Cc1cc(Br)ccc1NC(=S)NC(=O)c1ccc2c(c1)OCO2 | 18% | 14300 nM | 25% | – | 7.09% | 1.64% | 3.38% | Activity [8]: 34% |
| O=C(O)c1ccc2c(c1)OCO2 | 21% | – | 10% | – | – | – | – | Activity [5]: 29% |
| COc1ccc(NC(=S)NC(=O)c2ccc3c(c2)OCO3)cc1 | 22% | – | 12% | – | 3.32% | 1.38% | 7.44% | Activity ([5]; filed as antagonist): 44%; Activity [8]: 36% |
| Cc1ccc(C(=O)Nc2ccc(S(=O)(=O)O)c3cc(S(=O)(=O)O)cc(S(=O)(=O)O)c23)cc1NC(=O)c1cccc(NC(=O)Nc2cccc(C(=O)Nc3cc(C(=O)Nc4ccc(S(=O)(=O)O)c5cc(S(=O)(=O)O)cc(S(=O)(=O)O)c45)ccc3C)c2)c1 [SURAMIN] | – | 4730 nM | – | – | 11.56% | 11.46% | 49.01% | IC50 [18]: 14000 nM; IC50 [17]: 15800 nM |

More lines, main results first:

| Activity [1] | IC50 [3] | Activity [4] | IC50 [9] | SMILES | Activity [2] | Activity [6] | Activity [7] | other results |
| --- | --- | --- | --- | --- | --- | --- | --- | --- |
| 35% | 39 nM | 27% | 13100 nM | CC(C)c1ccc(NC(=S)NC(=O)c2ccc3c(c2)OCO3)c(Br)c1 | 3.83% | 4.53% | 3.73% | – |
| – | 908 nM | 29% | 18 nM | O=C(NC(=S)Nc1cccc2cccnc12)c1ccc2c(c1)OCO2 | 3.04% | 5.45% | 1.42% | Activity ([1]; filed as antagonist): 41%; Emax [10]: 29%; IC50 [11]: 30 nM; Emax [12]: 68%; Emax [13]: 83% |
| – | 2160 nM | – | – | O=C(NC(=S)Nc1ccccc1O)c1ccc2c(c1)OCO2 | – | – | – | – |
| 38% | 55 nM | – | 3560 nM | O=C(NC(=S)Nc1c(Br)ccc(C(F)(F)F)c1Br)c1ccc2c(c1)OCO2 | 7.19% | 5.35% | 7.24% | Emax [14]: 40%; Emax [15]: 68%; Emax [16]: 90% |
| – | 1450 nM | – | 902 nM | O=C(NC(=S)Nc1ccc(O)cc1)c1ccc2c(c1)OCO2 | – | – | – | IC50 [11]: 1110 nM; IC50 [17]: 27600 nM |
| 33% | 1050 nM | 32% | 45 nM | NS(=O)(=O)c1ccc(CCNC(=S)NC(=O)c2ccc3c(c2)OCO3)cc1 | 5.81% | 4.26% | 5.77% | IC50 [11]: 47 nM |
| 17% | 2170 nM | 23% | 110 nM | NS(=O)(=O)c1cccc(NC(=S)NC(=O)c2ccc3c(c2)OCO3)c1 | 6.41% | 2.52% | 4.19% | IC50 [11]: 173 nM |
| – | 935 nM | – | 34 nM | O=C(NC(=S)Nc1cccnc1Cl)c1ccc2c(c1)OCO2 | 2.82% | 1.94% | 6.15% | IC50 [11]: 34 nM; IC50 [18]: 35900 nM |
